Laboratory results: patent publication US20150150253A1, “CROP ENHANCEMENT COMPOSITIONS” (Syngenta Participations AG, priority 2012, published 2015)
“And” between values parts separate entries of the source, which are not always exact repeats. Equal entries are not always repeated. Where two headings read alike, the source gives them in different places.

What was measured:
Pythium ultimum = Pythium ultimum / liquid culture (seedling damping off), well plate mixture test; type: cell-based
Gaeumannomyces graminis = Gaeumannomyces graminis / liquid culture (take-all of cereals), well plate mixture test; type: cell-based
Ustilago nuda = Ustilago nuda / liquid culture (barley loose smut), well plate mixture test; type: cell-based
[1] = tested on: Monographella nivalis (Microdochium nivale); experiment: Monographella nivalis (Microdochium nivale) / liquid culture (foot rot cereals), well plate mixture test; type: cell-based
Fusarium culmorum = experiment: microbe, parasite or virus in culture; type: cell-based; conditions: read-out: % efficacy observed
[2] = tested on: Thanatephorus cucumeris (Rhizoctonia solani)
From the text: A synergistic effect exists whenever the action of an active ingredient combination is greater than the sum of the actions of the individual components.
ppm=milligrams of active ingredient (=a.i.) per liter of spray mixture X=% action by active ingredient A) using p ppm of active ingredient Y=% action by active ingredient B) using q ppm of active ingredient. According to COLBY, the expected (additive) action of active ingredients A)+B) using p+q ppm of active ingredient is
If the action actually observed (O) is greater than the expected action (E), then the action of the combination is super-additive, i.e. there is a synergistic effect. In mathematical terms, synergism corresponds to a positive value for the difference of (O-E). In the case of purely complementary addition of activities (expected activity), said difference (O-E) is zero. A negative value of said difference (O-E) signals a loss of activity compared to the expected activity.
Method Description Liquid Culture Tests in Well Plates for Mixtures
Thanatephorus cucumeris (Rhizoctonia solani)/Liquid Culture (Foot Rot, Damping-Off)
Mycelia fragments of a newly grown liquid culture of the fungus are directly mixed into nutrient broth (PDB potato dextrose broth). After placing a (DMSO) solution of the test compounds into a microtiter plate (96-well format), the nutrient broth containing the fungal material is added. The test plates are incubated at 24° C. and the inhibition of growth is determined photometrically 3-4 days after application and percent antifungal activity relative to the untreated check is calculated.

[3] = Thanatephorus cucumeris, read-out: % efficacy observed

CO/C=C(/C(=O)OC)c1ccccc1Oc1cc(Oc2ccccc2C#N)ncn1 [Azoxystrobin, azoxystrobin]
% efficacy observed (Pythium ultimum; Azoxystrobin 0.0250 mg ai/l): 14.0% | % efficacy observed (Pythium ultimum; Azoxystrobin 0.0500 mg ai/l): 35.6% | % efficacy observed (Pythium ultimum; Azoxystrobin 0.1000 mg ai/l): 45.3% | % efficacy observed (Gaeumannomyces graminis; Azoxystrobin 0.0008 mg ai/l): 40.7% | % efficacy observed (Gaeumannomyces graminis; Azoxystrobin 0.0016 mg ai/l): 67.0% | % efficacy observed (Gaeumannomyces graminis; Azoxystrobin 0.0031 mg ai/l): 74.8%

COc1ccc(CC(=O)N(O)Cc2ccc(F)cc2)cc1 [Compound D4]
Emax at 0.0391 µg/mL (Pythium ultimum; Globisporangium ultimum, D4 0.0391 mg ai/l, read-out: % efficacy observed): 0% | Emax at 0.1563 µg/mL (Pythium ultimum; Globisporangium ultimum, D4 0.1563 mg ai/l, read-out: % efficacy observed): 0% | Emax at 0.3125 µg/mL (Pythium ultimum; Globisporangium ultimum, D4 0.3125 mg ai/l, read-out: % efficacy observed): 0% | Emax at 0.625 µg/mL (Pythium ultimum; Globisporangium ultimum, D4 0.6250 mg ai/l, read-out: % efficacy observed): 0% | Emax at 1.25 µg/mL (Pythium ultimum; Globisporangium ultimum, D4 1.2500 mg ai/l, read-out: % efficacy observed): 0% | Emax at 2.5 µg/mL (Pythium ultimum; Globisporangium ultimum, D4 2.5000 mg ai/l, read-out: % efficacy observed): 0% | % efficacy observed (Gaeumannomyces graminis; D4 0.000000 mg ai/l): 5.3% | Emax at 0.0781 µg/mL (Gaeumannomyces graminis; Gaeumannomyces graminis, D4 0.0781 mg ai/l, read-out: % efficacy observed): 0% | Emax at 0.1563 µg/mL (Gaeumannomyces graminis; Gaeumannomyces graminis, D4 0.1563 mg ai/l, read-out: % efficacy observed): 0% | Emax at 0.3125 µg/mL (Gaeumannomyces graminis; Gaeumannomyces graminis, D4 0.3125 mg ai/l, read-out: % efficacy observed): 0% | Emax at 0.625 µg/mL (Gaeumannomyces graminis; Gaeumannomyces graminis, D4 0.6250 mg ai/l, read-out: % efficacy observed): 0% | Emax at 1.25 µg/mL (Gaeumannomyces graminis; Gaeumannomyces graminis, D4 1.2500 mg ai/l, read-out: % efficacy observed): 0% | Emax at 2.5 µg/mL (Gaeumannomyces graminis; Gaeumannomyces graminis, D4 2.5000 mg ai/l, read-out: % efficacy observed): 0% | Emax at 5 µg/mL (Gaeumannomyces graminis; Gaeumannomyces graminis, D4 5.0000 mg ai/l, read-out: % efficacy observed): 0% | Emax at 10 µg/mL (Gaeumannomyces graminis; Gaeumannomyces graminis, D4 10.0000 mg ai/l, read-out: % efficacy observed): 0% | Emax at 20 µg/mL (Gaeumannomyces graminis; Gaeumannomyces graminis, D4 20.0000 mg ai/l, read-out: % efficacy observed): 0% | % efficacy observed (Ustilago nuda; D4 0.0391 mg ai/l): 8.7% | % efficacy observed (Ustilago nuda; D4 0.0781 mg ai/l): 2.5% and 0.2% | % efficacy observed (Ustilago nuda; D4 0.1563 mg ai/l): 3.7% | Emax at 0.3125 µg/mL (Ustilago nuda; Ustilago nuda, D4 0.3125 mg ai/l, read-out: % efficacy observed): 0% | Emax at 0.625 µg/mL (Ustilago nuda; Ustilago nuda, D4 0.6250 mg ai/l, read-out: % efficacy observed): 0% | Emax at 1.25 µg/mL (Ustilago nuda; Ustilago nuda, D4 1.2500 mg ai/l, read-out: % efficacy observed): 0% | Emax at 2.5 µg/mL (Ustilago nuda; Ustilago nuda, D4 2.5000 mg ai/l, read-out: % efficacy observed): 7% | Emax at 20 µg/mL (Ustilago nuda; Ustilago nuda, D4 20.0000 mg ai/l, read-out: % efficacy observed): 1.3% | Emax at 0.1563 µg/mL ([1]; Monographella nivalis, D4 0.1563 mg ai/l, read-out: % efficacy observed): 6.7% | Emax at 0.3125 µg/mL ([1]; Monographella nivalis, D4 0.3125 mg ai/l, read-out: % efficacy observed): 10.2% | Emax at 0.625 µg/mL ([1]; Monographella nivalis, D4 0.6250 mg ai/l, read-out: % efficacy observed): 0% | Emax at 2.5 µg/mL ([1]; Monographella nivalis, D4 2.5000 mg ai/l, read-out: % efficacy observed): 2.8% | Emax at 5 µg/mL ([1]; Monographella nivalis, D4 5.0000 mg ai/l, read-out: % efficacy observed): 2.1% | Emax at 10 µg/mL ([1]; Monographella nivalis, D4 10.0000 mg ai/l, read-out: % efficacy observed): 6.4% | Emax at 20 µg/mL ([1]; Monographella nivalis, D4 20.0000 mg ai/l, read-out: % efficacy observed): 1.4% | Emax at 10 µg/mL (Fusarium culmorum): 0% | Emax at 20 µg/mL (Fusarium culmorum): 0% | % efficacy observed ([2]; D4 0.6250 mg ai/l): 2.1% and 4.6% | Emax at 0.0781 µg/mL ([2]; Thanatephorus cucumeris, read-out: % efficacy observed, D4 0.0781 mg ai/l): 0% | Emax at 0.1563 µg/mL ([2]; Thanatephorus cucumeris, read-out: % efficacy observed, D4 0.1563 mg ai/l): 0% | Emax at 20 µg/mL ([2]; Thanatephorus cucumeris, read-out: % efficacy observed, D4 20.0000 mg ai/l): 0%

CC1COC(Cn2cncn2)(c2ccc(Oc3ccc(Cl)cc3)cc2Cl)O1 (stereo not shown) [Difenconazole]
Emax at 0.5 µg/mL (Gaeumannomyces graminis; Gaeumannomyces graminis, Difenconazole 0.5000 mg ai/l, read-out: % efficacy observed): 0% | Emax at 1 µg/mL (Gaeumannomyces graminis; Gaeumannomyces graminis, Difenconazole 1.0000 mg ai/l, read-out: % efficacy observed): 10.6% | Emax at 2 µg/mL (Gaeumannomyces graminis; Gaeumannomyces graminis, Difenconazole 2.0000 mg ai/l, read-out: % efficacy observed): 39% | Emax at 0.5 µg/mL (Ustilago nuda; Ustilago nuda, Difenconazole 0.5000 mg ai/l, read-out: % efficacy observed): 30% | Emax at 1 µg/mL (Ustilago nuda; Ustilago nuda, Difenconazole 1.0000 mg ai/l, read-out: % efficacy observed): 45.9% | Emax at 2 µg/mL (Ustilago nuda; Ustilago nuda, Difenconazole 2.0000 mg ai/l, read-out: % efficacy observed): 60.5% | Emax at 0.5 µg/mL ([2]; Thanatephorus cucumeris, read-out: % efficacy observed, Difenconazole 0.5000 mg ai/l): 0% | Emax at 1 µg/mL ([2]; Thanatephorus cucumeris, read-out: % efficacy observed, Difenconazole 1.0000 mg ai/l): 0%

N#Cc1c[nH]cc1-c1cccc2c1OC(F)(F)O2 [Fludioxonyl]
Emax at 0.0313 µg/mL (Ustilago nuda; Ustilago nuda, read-out: % efficacy observed): 33.1% | Emax at 0.125 µg/mL [2, 3]: 13.8% | Emax at 0.25 µg/mL [2, 3]: 66.5% | Emax at 0.5 µg/mL [2, 3]: 60.5% | Emax at 1 µg/mL [2, 3]: 86.8%

Cn1cc(C(=O)Nc2ccccc2-c2cc(F)c(F)c(F)c2)c(C(F)F)n1 [Fluxapyroxad, fluxapyroxad]
% efficacy observed ([1]; Fluxapyroxad 0.1875 mg ai/l): 22.2% | % efficacy observed ([1]; Fluxapyroxad 0.3750 mg ai/l): 55.5% | % efficacy observed ([1]; Fluxapyroxad 0.7500 mg ai/l): 65.4% | % efficacy observed ([2]; Fluxapyroxad 0.1875 mg ai/l): 29.7% | % efficacy observed ([2]; Fluxapyroxad 0.3750 mg ai/l): 61.8% | % efficacy observed ([2]; Fluxapyroxad 0.7500 mg ai/l): 71.9% | % efficacy observed ([2]; Fluxapyroxad 1.5000 mg ai/l): 67.9%

COCC(=O)N(c1c(C)cccc1C)[C@H](C)C(=O)OC [Mefenoxam, mefenoxam]
% efficacy observed (Pythium ultimum; Mefenoxam 0.0078 mg ai/l): 34.1% | % efficacy observed (Pythium ultimum; Mefenoxam 0.0156 mg ai/l): 37.8% | % efficacy observed (Pythium ultimum; Mefenoxam 0.0313 mg ai/l): 70.2% | % efficacy observed (Pythium ultimum; Mefenoxam 0.0625 mg ai/l): 71.3% | % efficacy observed (Pythium ultimum; Mefenoxam 0.1250 mg ai/l): 84.4%

Cc1nn(C)c(F)c1C(=O)Nc1ccccc1C(C)CC(C)C (stereo not shown) [Penflufen, penflufen]
% efficacy observed (Ustilago nuda; Penflufen 0.0039 mg ai/l): 23.1% | % efficacy observed ([1]; Penflufen 1.0000 mg ai/l): 19.4% | % efficacy observed ([1]; Penflufen 2.0000 mg ai/l): 56.8% | % efficacy observed ([2]; Penflufen 0.0156 mg ai/l): 20.8% | % efficacy observed ([2]; Penflufen 0.0313 mg ai/l): 7.5% | % efficacy observed ([2]; Penflufen 0.0625 mg ai/l): 42.0% | % efficacy observed ([2]; Penflufen 0.1250 mg ai/l): 64.3% | % efficacy observed ([2]; Penflufen 0.2500 mg ai/l): 83.3%

Cn1cc(C(=O)Nc2ccccc2C2CC2C2CC2)c(C(F)F)n1 (stereo not shown) [Sedaxane, sedaxane]
% efficacy observed (Gaeumannomyces graminis; Sedaxane 1.5000 mg ai/l): 46.7% | % efficacy observed (Ustilago nuda; Sedaxane 0.0117 mg ai/l): 55.0% | % efficacy observed ([2]; Sedaxane 0.0469 mg ai/l): 0.0% | % efficacy observed ([2]; Sedaxane 0.0938 mg ai/l): 41.1% | % efficacy observed ([2]; Sedaxane 0.1875 mg ai/l): 71.1% | % efficacy observed ([2]; Sedaxane 0.3750 mg ai/l): 72.2% | % efficacy observed ([2]; Sedaxane 0.7500 mg ai/l): 72.2%

CC(C)(C)C(O)(CCc1ccc(Cl)cc1)Cn1cncn1 (stereo not shown) [Tebuconazole, tebuconazole]
Emax at 0.25 µg/mL (Gaeumannomyces graminis; Gaeumannomyces graminis, Tebuconazole 0.2500 mg ai/l, read-out: % efficacy observed): 43.5% | Emax at 0.5 µg/mL (Gaeumannomyces graminis; Gaeumannomyces graminis, Tebuconazole 0.5000 mg ai/l, read-out: % efficacy observed): 47.5% | Emax at 1 µg/mL (Gaeumannomyces graminis; Gaeumannomyces graminis, Tebuconazole 1.0000 mg ai/l, read-out: % efficacy observed): 61% | Emax at 2 µg/mL (Gaeumannomyces graminis; Gaeumannomyces graminis, Tebuconazole 2.0000 mg ai/l, read-out: % efficacy observed): 74% | Emax at 1 µg/mL ([2]; Thanatephorus cucumeris, read-out: % efficacy observed, Tebuconazole 1.0000 mg ai/l): 0% | Emax at 2 µg/mL ([2]; Thanatephorus cucumeris, read-out: % efficacy observed, Tebuconazole 2.0000 mg ai/l): 0%

c1ccc2[nH]c(-c3cscn3)nc2c1 [Thiabendazole, thiabendazole]
Emax at 3 µg/mL (Fusarium culmorum): 45.3% | Emax at 6 µg/mL (Fusarium culmorum): 71.7%
